Assay results: patent US20110038884A1, “IMMUNOPOTENTIATING AGENT COMPRISING EP1 AGONIST” (NATIONAL UNIVERSITY CO., HAMAMATSU UNIVER. SCHOOL OF …, priority 2008, published 2011)

Key:
[1] = test system: TRP-2-specific CTLs in cervical lymph nodes; test: Activation of cytotoxic T lymphocytes in cervical lymph nodes: TRP-2-specific CTL frequency by tetramer flow cytometry after tape stripping; format: in vivo, C57BL/6 (B6) mice; conditions: relative to 100 = total mononucleocytes in cervical lymph nodes; one week after application to tape-stripped auricles; TRP-2 10 mg per side, Compound A 20 μL of 100 μM per side
Method: The corneal layer of the auricles of C57BL/6 (B6) mice was destroyed by repeatedly carrying out (ten times) a stripping operation using adhesive tape, following which an antigen peptide or EP1 agonist was applied as a test substance. Using a solution obtained by dissolving a melanoma-specific antigen peptide (available from Peptide Business Department, Accord K.K.; abbreviated below as TRP-2) as the antigen peptide in 70% ethanol, 10 mg of the antigen peptide was applied per side of an auricle. […] One week after application of the test substance, the cervical lymph nodes were removed. The TRP-2-specific CTL frequency, relative to an arbitrary value of 100 representing the total number of mononucleocytes in the cervical lymph nodes, was determined by flow cytometric analysis (FACScaliber; Becton, Dickinson and Company) with a tetramer (Medical & Biological Laboratories Co., Ltd.). Four experimental groups were established: (1) a group in which only tape stripping (abbreviated below as TS) was carried out, (2) a group in which TRP-2 was applied after TS, (3) a group in which Compound A was applied after TS, and (4) a group in which TRP-2 and Compound A were applied after TS.

I-A^b = test: Expression of cell-surface molecules in cultured Langerhans cells (flow cytometry): I-A^b; format: cell-based, C57BL/6 mice; conditions: Compound A 1 μM, Langerhans cells cultured a half-day; control group 12.1
Method: (§1) Using the same procedure as in Example 2 above, the Langerhans cells of C57BL/6 (36) mice were isolated, following which Compound A (1 μM) was added as an EP1 agonist and the cells were cultured for a half-day in a culture medium (cRPMI1640 medium; Sigma-Aldrich Japan). The cultured cells were then stained using antibodies specific to the cell-surface molecules I-A^b, B7-1 (CD80), B7-2 (CD86), CD40 and ICAM-1 (CD54), and changes in the expression of these molecules were analyzed by flow cytometry. An experimental group treated in the same way, excluding the addition of Compound A, was established as a control.

B7-1 (CD80) = test: Expression of cell-surface molecules in cultured Langerhans cells (flow cytometry): B7-1; format: cell-based, C57BL/6 mice; conditions: Compound A 1 μM, Langerhans cells cultured a half-day; control group 5.9
Method: as §1

B7-2 (CD86) = test: Expression of cell-surface molecules in cultured Langerhans cells (flow cytometry): B7-2; format: cell-based, C57BL/6 mice; conditions: Compound A 1 μM, Langerhans cells cultured a half-day; control group 65.5
Method: as §1

CD40 = test: Expression of cell-surface molecules in cultured Langerhans cells (flow cytometry): CD40; format: cell-based, C57BL/6 mice; conditions: Compound A 1 μM, Langerhans cells cultured a half-day; control group 28.7
Method: as §1

ICAM-1 (CD54) = test: Expression of cell-surface molecules in cultured Langerhans cells (flow cytometry): ICAM-1; format: cell-based, C57BL/6 mice; conditions: Compound A 1 μM, Langerhans cells cultured a half-day; control group 36.5
Method: as §1

B16 melanoma cells = test: Life-prolonging effects in melanoma-inoculated mice; format: in vivo, B6 mice; conditions: 8 animals per group
Method: B16 melanoma cells (2×10^5) were transplanted into B6 mice in the same way as in Example 4. On day 5 after transplantation, the respective test substances (TRP-2 (10 μg per side of an auricle), Compound A (20 μL of a 100 μM solution per side of an auricle)) were administered to the right auricles in B6 mice by the same method as in Example 2. The same treatment was carried out ten days later on the left auricle, following which the survival of the mice in each experimental group was examined. The following groups were established as experimental groups (each group being composed of 8 animals): (1) a group in which only TS was carried out, (2) a group in which compound A was applied after TS, and (3) a group in which TRP-2 and Compound A were applied after TS.

NK1.1+ cells = test: Activation of NK1.1+ cells in cervical lymph nodes; format: in vivo, B6 mice; conditions: relative to 100 = total mononucleocytes in cervical lymph nodes; two weeks after application of 20 μL of 100 μM per side after TS; TS-only group 2.7
Method: As in Example 1, the corneal layer of the auricles of B6 mice was destroyed by repeatedly stripping ten times using adhesive tape, following which an EP1 agonist (Compound A: 20 μL of a 100 μM solution per side of an auricle) was applied as the test substance. Two weeks after application of the test substance, the cervical lymph nodes were removed. The frequency of NK1.1+ cells, relative to an arbitrary value of 100 representing the total number of mononucleocytes in the cervical lymph nodes, was determined by flow cytometric analysis. The following groups were established as experimental groups: (1) a group in which only TS was carried out, and (2) a group in which Compound A was applied after TS.

splenic lymphocytes = test: Splenic lymphocyte proliferative ability test (WST-1); format: in vivo, B6 mice; conditions: cell proliferation ratio; splenic lymphocytes recovered one week after application after TS, cultured 3 days with IL-2 (10 U/mL); TS-only group 4.2
Method: As in Example 6, TS was carried out, after which Compound A (20 μL of a 100 μM solution per side of an auricle) was applied as the substance. One week after application of the test substance, splenic lymphocytes were recovered, then cultured at 37° C. for 3 days in a culture medium (cRPMI1640 medium: Sigma-Aldrich Japan) containing IL-2 (10 U/mL). Cell proliferative ability tests were carried out using WST-1 (Takara Bio Inc.) as the cell proliferation reagent (absorbance at 450 nm). Experimental groups similar to those in Example 6 were established (with each group containing three animals).
The relative values of the absorption intensities in each experimental group, based on an arbitrary value of 1 for the absorbance at 450 nm when all of the WST-1 added had decomposed to formazan, indicate the percent uptake of WST-1; that is, the cell proliferation ratio.

[2] = test system: EL4 cells not subjected to NP pulsing; test: NP-specific CTL specific lysis of calcein-labeled EL4 cells, not NP pulsed; format: in vivo, C57BL/6 (B6) mice; conditions: 3 hours
NP-pulsed EL4 cells = test: NP-specific CTL specific lysis of calcein-labeled EL4 cells, NP pulsed; format: in vivo, C57BL/6 (B6) mice; conditions: NP-pulsed EL4 cells (10 μg/mL NP), 3 hours
[3] = test system: isolated epidermal Langerhans cells; test: Activation of cytotoxic T lymphocytes in isolated Langerhans cells co-cultured with lymphocytes; format: cell-based, C57BL/6 (B6) mouse; conditions: relative to 100 = total mononucleocytes in culture medium; TRP-2 10 μg/mL, Compound A 1 μM; 7 days co-culture
Method: An epidermal cell suspension was prepared by trypsinizing an auricle epidermal sheet removed over a given surface area from the corneal layer on one of the auricles in C57BL/6 (B6) mouse. The resulting epidermal cell suspension was subjected to panning using an antibody specific for I-A^b antigen in order to isolate epidermal Langerhans cells. Each test substance (TRP-2 (concentration, 10 μg/mL) and Compound A (1 μM)) was added to the isolated Langerhans cells (cell density, 10^5 cells/mL), following which the cells were cultured in a culture medium (cRPMI1640 medium; Sigma-Aldrich Japan). After a half-day, the cells were then co-cultured for 7 days with spleen cell lymphocytes isolated from the cervical lymph nodes of B6 mice. The frequency of TRP-2-specific CTLs, relative to an arbitrary value of 100 representing the total number of mononucleocytes in the culture medium, was subsequently determined by flow cytometric analysis (FACScaliber; Becton, Dickinson and Company) with a tetramer (Medical & Biological Laboratories Co., Ltd.). The following groups were established as experimental groups: (1) an untreated group, (2) a group in which TRP-2 was added, and (3) a group in which TRP-2 and Compound A were both added.

## CCCC[C@H](C)C[C@H](O)/C=C/[C@H]1[C@H](O)CC(=O)[C@@H]1CC(=O)C1CCC(C(=O)O)CC1 (stereo partly drawn) [Compound A, (13E)-(11α,15S,17S)-2,5-Ethano-6,9-dioxo-11,15-dihydroxy-17,20-dimethylprosta-13-enoic acid]
[1]
  Ratio of TRP-2-specific CTLs: 0.53
I-A^b
  Expression of each cell-surface molecule (%): I-A^b: 28.3%
B7-1 (CD80)
  Expression of each cell-surface molecule (%): B7-1: 8.8%
B7-2 (CD86)
  Expression of each cell-surface molecule (%): B7-2: 65.2%
CD40
  Expression of each cell-surface molecule (%): CD40: 30.8%
ICAM-1 (CD54)
  Expression of each cell-surface molecule (%): ICAM-1: 46.3%
B16 melanoma cells; day 14 after inoculation of B16 melanoma cells
  Number of survivors: 8
B16 melanoma cells; day 16 after inoculation of B16 melanoma cells
  Number of survivors: 8
B16 melanoma cells; day 24 after inoculation of B16 melanoma cells
  Number of survivors: 8
B16 melanoma cells; day 25 after inoculation of B16 melanoma cells
  Number of survivors: 8
B16 melanoma cells; day 28 after inoculation of B16 melanoma cells
  Number of survivors: 8
B16 melanoma cells; day 30 after inoculation of B16 melanoma cells
  Number of survivors: 8
B16 melanoma cells; day 32 after inoculation of B16 melanoma cells
  Number of survivors: 8
B16 melanoma cells; day 34 after inoculation of B16 melanoma cells
  Number of survivors: 8
B16 melanoma cells; day 36 after inoculation of B16 melanoma cells
  Number of survivors: 4
B16 melanoma cells; day 38 after inoculation of B16 melanoma cells
  Number of survivors: 0
B16 melanoma cells; day 41 after inoculation of B16 melanoma cells
  Number of survivors: 0
B16 melanoma cells; day 44 after inoculation of B16 melanoma cells
  Number of survivors: 0
B16 melanoma cells; day 46 after inoculation of B16 melanoma cells
  Number of survivors: 0
B16 melanoma cells; day 50 after inoculation of B16 melanoma cells
  Number of survivors: 0
B16 melanoma cells; day 52 after inoculation of B16 melanoma cells
  Number of survivors: 0
B16 melanoma cells; day 55 after inoculation of B16 melanoma cells
  Number of survivors: 0
B16 melanoma cells; day 56 after inoculation of B16 melanoma cells
  Number of survivors: 0
NK1.1+ cells
  Ratio of NK1.1+ cells: 3.6
Splenic lymphocytes
  Uptake of WST-1 (%): 27.3%

## NP: influenza virus-specific antigen peptide, nucleoprotein (NP) 366-374, Ala Ser Asn Glu Asn Met Glu Thr Met (ASNENMETM; UniProt P03466 366-374, looked up, fragment)
[2]
  Specific lysis: 1.2%
NP-pulsed EL4 cells
  Specific lysis: 11.9%

## TRP-2: melanoma-specific antigen peptide, tyrosinase-related protein 2 181-188, Val Tyr Asp Phe Phe Val Trp Leu (VYDFFVWL; Tyrosinase-related protein 2 residues 181-188) [reference compound]
[1]
  Ratio of TRP-2-specific CTLs: 0.44
[3]
  Ratio of TRP-2-specific CTLs: 3.2
